The source of these data is paper PMC6342991, “Effects of point mutations in the binding pocket of the mouse major urinary protein MUP20 on ligand affinity and specificity” (Scientific Reports, 2019).

The target in assay [1] is T1, MUP20N107L (Mus musculus, UniProt Q5FW60, N107L).
T1 construct: 6xHis (N); made in house; host or cells: E. coli BL21(DE3), pET5b
T1 sequence (Q5FW60 20-181 N107L): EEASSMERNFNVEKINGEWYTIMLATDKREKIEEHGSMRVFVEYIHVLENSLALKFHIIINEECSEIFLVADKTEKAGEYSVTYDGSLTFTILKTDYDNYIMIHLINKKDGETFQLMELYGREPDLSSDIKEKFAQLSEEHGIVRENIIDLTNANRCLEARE
Nature of the assay: Fluorescence competitive binding assay with 1-NPN, MUP20 N107L. How it is done:
(§1) Fluorescence competitive binding assays: Fluorescence-competitive binding assays were carried out using the fluorescent probe N-phenyl-1-naphthylamine (1-NPN), as described[39],[40]. A binding curve was constructed and the dissociation constant of the probe (KD) was calculated.
(§2) The binding analyses assumed that the protein had 100% activity and that the stoichiometry of binding was 1:1 at saturation. The affinity of various volatile ligands was measured in competitive binding assays.
(§3) The change in fluorescence was recorded after adding increasing concentrations of ligand. Competitor concentrations causing a decay of fluorescence to half-maximal intensity were determined as IC50 and the dissociation constant for the test ligands (expressed as Kd) was calculated using the following formula:1 Kd=[IC50]/1+[Probe]/KD where [Probe] is the free concentration of the fluorescent probe and KD is the dissociation constant of the complex Protein/Probe.

For assay [2], the target named is T2, MUP20L124V (Mus musculus, UniProt Q5FW60, L124V).
T2 construct: 6xHis (N); made in house; host or cells: E. coli BL21(DE3), pET5b
T2 sequence (Q5FW60 20-181 L124V): T1 sequence (Q5FW60 20-181 N107L) with L88N, L105V
Put plainly: Fluorescence competitive binding assay with 1-NPN, MUP20 L124V. Here is the method: as §1, §2, §3

The target of assay [3] is T3, MUP20 mutant Y103R (Mus musculus, UniProt Q5FW60, Y103R).
T3 construct: 6xHis (N); made in house; host or cells: E. coli BL21(DE3), pET5b
T3 sequence (Q5FW60 20-181 Y103R): T1 sequence (Q5FW60 20-181 N107L) with Y84R, L88N
Nature of the assay: Isothermal titration calorimetry, MUP20 Y103R. It counts as binding. The note with it: 25 °C, 50 mM Tris HCl pH 7.4. Here is the method: (§4) ITC titrations were performed at 25 ± 0.1 °C in 50 mM Tris HCl pH 7.4, using a MicroCal VP-ITC instrument. To a MUP solution (1.7 ml, 25 µM) were sequentially added 25 aliquots (10 μl each) of a ligand stock solution (500 μM), with a delay of 4 min after each injection with continuous stirring of the solution (at 307 r.p.m.) in the sample cell. Before analysis, protein samples were dialyzed overnight in the same buffer, using a Slide-A-Lyzer (3.5-kDa cutoff) from ThermoFisher Scientific (Waltham, MA, USA), and thoroughly degassed. The heat of dilution was determined in control experiments by injecting aliquots (10 µl) of a ligand stock solution (500 µM) into buffer and this was subtracted from the integrated binding isotherm prior to curve fitting. Each injection generated a heat-burst curve (μcal s^−1) versus time (min). The area under each peak was determined by integration using Origin 7.5 software (Microcal, Inc.) to give the heat associated with the injection. The heat exchanged per mole of injectant was plotted against the ligand:protein molar ratio. The binding constants (Ka) and stoichiometry (N) parameters of the binding process were obtained by fitting the integrated heats of binding to the one-site binding model using the MicroCal ITC Data Analysis software.

For assay [4], the target named is T4, wild type MUP20 (Mus musculus, UniProt Q5FW60).
T4 construct: 6xHis (N); made in house; host or cells: E. coli BL21(DE3), pET5b
T4 sequence (Q5FW60 20-181): T1 sequence (Q5FW60 20-181 N107L) with L88N
Put plainly: Isothermal titration calorimetry, wild type MUP20. It counts as binding. The note with it: for Kd: one-site binding model, 25 °C, 50 mM Tris HCl pH 7.4, read-out: Equilibrium dissociation constant Kd (ITC), WT. How it is done: as §4

Assay [5] addresses T5, MUP20 mutant L124V (Mus musculus, UniProt Q5FW60, L124V).
T5 construct: 6xHis (N); made in house; host or cells: E. coli BL21(DE3), pET5b
T5 sequence (Q5FW60 20-181 L124V): T1 sequence (Q5FW60 20-181 N107L) with L88N, L105V
Put plainly: Isothermal titration calorimetry, MUP20 L124V. The format is binding. The note with it: for Drop of affinity of L124V compared to wild-type MUP20 (ITC): decrease in affinity; for Kd: one-site binding model, 25 °C, 50 mM Tris HCl pH 7.4, read-out: Equilibrium dissociation constant Kd (ITC), L124V. Here is the method: as §4

Assay [6] addresses T4, wild type MUP20. Nature of the assay: Fluorescence competitive binding assay with 1-NPN, wild type MUP20. As to conditions: 1-NPN displacement, 50 mM Tris-HCl pH 7.4, 25 °C. Here is the method: as §1, §2, §3
In assay [7] the target is T6, MUP20Y103D (Mus musculus, UniProt Q5FW60, Y103D).
T6 construct: 6xHis (N); made in house; host or cells: E. coli BL21(DE3), pET5b
T6 sequence (Q5FW60 20-181 Y103D): T1 sequence (Q5FW60 20-181 N107L) with Y84D, L88N
Put plainly: Fluorescence competitive binding assay with 1-NPN, MUP20 Y103D. How it is done: as §1, §2, §3

The target in assay [8] is T7, MUP20V59T (Mus musculus, UniProt Q5FW60, V59T).
T7 construct: 6xHis (N); made in house; host or cells: E. coli BL21(DE3), pET5b
T7 sequence (Q5FW60 20-181 V59T): T1 sequence (Q5FW60 20-181 N107L) with V40T, L88N
Put plainly: Fluorescence competitive binding assay with 1-NPN, MUP20 V59T. Here is the method:
as §1, §2, §3

In assay [9] the target is T8, MUP20L88Q (Mus musculus, UniProt Q5FW60, L88Q).
T8 construct: 6xHis (N); made in house; host or cells: E. coli BL21(DE3), pET5b
T8 sequence (Q5FW60 20-181 L88Q): T1 sequence (Q5FW60 20-181 N107L) with L69Q, L88N
Put plainly: Fluorescence competitive binding assay with 1-NPN, MUP20 L88Q. As to conditions: 1-NPN displacement, 50 mM Tris-HCl pH 7.4, 25 °C. Here is the method: as §1
The affinity of various volatile ligands was measured in competitive binding assays.
as §3

Assay [10] concerns the target T9, MUP20E137K (Mus musculus, UniProt Q5FW60, E137K).
T9 construct: 6xHis (N); made in house; host or cells: E. coli BL21(DE3), pET5b
T9 sequence (Q5FW60 20-181 E137K): T1 sequence (Q5FW60 20-181 N107L) with L88N, E118K
Put plainly: Fluorescence competitive binding assay with 1-NPN, MUP20 E137K. How it is done: as §1, §2, §3

In assay [11] the target is T10, MUP20Y103R (Mus musculus, UniProt Q5FW60, Y103R).
T10 construct: 6xHis (N); made in house; host or cells: E. coli BL21(DE3), pET5b
T10 sequence (Q5FW60 20-181 Y103R): T1 sequence (Q5FW60 20-181 N107L) with Y84R, L88N
Put plainly: Fluorescence competitive binding assay with 1-NPN, MUP20 Y103R. How it is done:
as §1, §2, §3

In assay [12] the target is T11, MUP20 mutant L88Q (Mus musculus, UniProt Q5FW60, L88Q).
T11 construct: 6xHis (N); made in house; host or cells: E. coli BL21(DE3), pET5b
T11 sequence (Q5FW60 20-181 L88Q): T1 sequence (Q5FW60 20-181 N107L) with L69Q, L88N
Put plainly: Isothermal titration calorimetry, MUP20 L88Q. The format is binding. As to conditions: for Kd: one-site binding model, 25 °C, 50 mM Tris HCl pH 7.4, read-out: Equilibrium dissociation constant Kd (ITC), L88Q. Here is the method:
as §4

The target of assay [13] is T6, MUP20Y103D. More on the design: method as in Scorsone et al., IEEE Sensors Journal 2016, 16, 6543, Tab. 1. As to conditions: ref Scorsone et al., IEEE Sensors Journal 2016, 16, 6543, Tab. 1; read-out: Kd, Y103D (starred value); cited from earlier work.
The target in assay [14] is T2, MUP20L124V. On the set-up: method as in Scorsone et al., IEEE Sensors Journal 2016, 16, 6543, Tab. 1. As to conditions: ref Scorsone et al., IEEE Sensors Journal 2016, 16, 6543, Tab. 1; read-out: Kd, L124V (starred value); cited from earlier work.
The target in assay [15] is T8, MUP20L88Q. More on the design: method as in Scorsone et al., IEEE Sensors Journal 2016, 16, 6543, Tab. 1. As to conditions: ref Scorsone et al., IEEE Sensors Journal 2016, 16, 6543, Tab. 1; read-out: Kd, L88Q (starred value); cited from earlier work.
Assay [16] has as its target T4, wild type MUP20. On the set-up: method as in Scorsone et al., IEEE Sensors Journal 2016, 16, 6543, Tab. 1. As to conditions: ref Scorsone et al., IEEE Sensors Journal 2016, 16, 6543, Tab. 1; read-out: Kd, WT (starred value); cited from earlier work.
Setting [17] is: 1-NPN displacement, 50 mM Tris-HCl pH 7.4, 25 °C, read-out: Measured Kd, N107L.
Setting [18] is: 1-NPN displacement, 50 mM Tris-HCl pH 7.4, 25 °C, read-out: Measured Kd, L124V.
Setting [19] is: 1-NPN displacement, 50 mM Tris-HCl pH 7.4, 25 °C, read-out: Measured Kd, Y103D.
Where [20] appears, read: 1-NPN displacement, 50 mM Tris-HCl pH 7.4, 25 °C, read-out: Measured Kd, V59T.
The mark [21] stands for this setting: 1-NPN displacement, 50 mM Tris-HCl pH 7.4, 25 °C, read-out: Measured Kd, E137K.
Where [22] appears, read: 1-NPN displacement, 50 mM Tris-HCl pH 7.4, 25 °C, read-out: Measured Kd, Y103R.

Each structure is given as a SMILES string. Numbering of substitutions follows the chain as printed. Where “and” joins values, the source holds several entries; their conditions need not be identical. Equal entries are not always repeated. Entries after “also recorded” stand apart in the source; their conditions may differ. Where two headings read alike, the source gives them in different places. A value given as a limit tells only on which side of the number the result lay.

Take `COc1nccnc1CC(C)C` [PYR, 2-isobutyl-3-methoxypyrazine]: the Kd is 1400 nM in assay [1] (setting [17]); 70 nM in [2] (setting [18]); 1.6 µM in assay [4]; 2.1 ± 0.2 mM in [5]; 1290 nM and 1300 nM in assay [6] (read-out: Measured Kd, WT); 840 nM in [7] (setting [19]). Also, the Kd in assay [8] (setting [20]) is 1930 nM; in assay [9] (read-out: Measured Kd, L88Q), 1390 nM and 1400 nM; in assay [10] (setting [21]) it was 1520 nM; in assay [11] (setting [22]), 0.74 µM; in [12] it was 2.4 µM. In addition, the “Binding strength to Y103R mutant (ITC)” value in assay [3] was “barely detectable”. In [4] (higher affinity than MEN), the “Affinity for wild type MUP20 relative to MEN (ITC)” value was above 40 fold. The “Drop of affinity of L124V compared to wild-type MUP20 (ITC)” value in [5] was determined as 1300 fold. Besides, in [12] (number = increase in affinity), the “Change of affinity of L88Q compared to wild-type MUP20 (ITC)” value was “did not appreciably affect; also recorded: does not alter”.
Turning to `CC1=CC(=O)c2ccccc2C1=O` [MEN, methylnapthalene-1,4-dione], the Kd in [1] (setting [17]) is 1230 nM; in assay [4], 76 ± 19 µM; in assay [5], 1.9 ± 0.1 mM; in assay [8] (setting [20]) it was 1850 nM; in assay [13], 820 nM; in assay [14] it was 70 nM. For the same compound, the Kd in assay [15] is 1310 nM; in assay [10] (setting [21]), 2140 nM; in assay [16] it was 610 nM; in assay [12], 13 ± 6 µM. Moreover, the “Binding strength to Y103R mutant (ITC)” value in assay [3] is “barely detectable”. The “Drop of affinity of L124V compared to wild-type MUP20 (ITC)” value in [5] was determined as 25 fold.
For `CCCCCCC(CO)CCCC` (stereo not drawn) [OCT, 2-butyl-1-octanol], the Kd turned out to be 2670 nM in assay [1] (setting [17]); 360 nM in assay [2] (setting [18]); 780 nM in [6] (read-out: Measured Kd, WT); 920 nM in assay [7] (setting [19]); 1540 nM in [8] (setting [20]); 1450 nM in assay [9] (read-out: Measured Kd, L88Q). Moreover, the results for the Kd in assay [10] (setting [21]) and in assay [11] (setting [22]) were 3200 nM and 1.88 µM, respectively.
Take `C=CC(C)(O)CCC=C(C)C` (stereo not drawn) [LIN, 3,7-dimethylocta-1,6-dien-3-ol]: the Kd in [1] (setting [17]) was found to be 1370 nM; in assay [2] (setting [18]) it was 290 nM; in assay [6] (read-out: Measured Kd, WT), 2820 nM; in assay [7] (setting [19]), 2170 nM; in assay [8] (setting [20]), 1600 nM; in assay [9] (read-out: Measured Kd, L88Q), 2210 nM. The figures for the Kd in assay [10] (setting [21]) and in [11] (setting [22]) were 1850 nM and 5.93 µM, respectively.
For `Cc1ccc(O)c(C)c1` [2,4-DMP, 2,4-dimethylphenol], the Kd in [1] turned out to be 1990 nM; in assay [2] it was 1300 nM; in assay [6] (Measured Kd, WT), 4240 nM; in assay [7], 4680 nM; in assay [8], 1440 nM; in assay [9] (Measured Kd, L88Q), 5080 nM. Besides, the Kd in assay [10] was 4050 nM; in [11], 11.9 µM.
